Measured values taken from patent publication US12479816B2, “20-HETE formation inhibitors” (UNIVERSITY OF PITTSBURGH—OF THE COMMONWEALTH SYSTEM OF …, priority 2019, dated 2025).

Tested on: 20-HETE formation (CYP4) in RLM
Assay: IC50 determination, 20-HETE formation in RLM
Type: biochemical, rat
Details: RLM 300 μg/ml, AA 100 μM, 12 concentrations
Experimental: Microsomal incubations contained HLM, RLM (300 μg/ml), AA (100 μM), NADPH (1 mM) and test compounds at 12 concentrations (0.1 nM-50 μM) in a 1 ml total volume in microsomal incubation buffer (0.12 M potassium phosphate buffer containing 5 mM magnesium chloride). Reaction was started by adding NADPH to the incubates and was carried out at 37° C. in a shaking water bath for 20 min. Reaction was stopped by placing tubes on ice, followed by adding 12.5 μl 20-HETE-d6 as internal standard to each sample. Microsomal incubations were extracted with 3 ml ethyl ether twice, dried down under nitrogen gas and reconstituted in 125 μl 80:20 methanol:deionized H2O for analysis. 20-HETE formation was quantified using the validated UPLC-MS/MS assay described above and normalized by vehicle group. HET0016 (250 nM) was used as positive control. Incubates without NADPH group served as the negative control. IC50 was determined by fitting the dose-response curve using Graphpad Prism nonlinear regression.

SMILES | IC50
O=C1CCCN1Cc1ccc(C2CCN(c3cn[nH]c3)CC2)cc1 [Compound 83, 1-(4-(1-(1H-Pyrazol-4-yl)piperidin-4-yl)benzyl)pyrrolidin-2-one] | 720 nM
Clc1ccc(CC2CCN(c3cn[nH]c3)CC2)cc1 [Compound 93, 4-(4-Chlorobenzyl)-1-(1H-pyrazol-4-yl)piperidine] | 120 nM
O=C1CCCN1c1ccc(C2CCN(c3cn[nH]c3)CC2)cc1 [Compound 100, 1-(4-(1-(1H-Pyrazol-4-yl)piperidin-4-yl)phenyl)pyrrolidin-2-one] | 570 nM

Tested on: not listed separately
Assay: HLM stability determination
Type: in vitro ADME, human
Details: HLM 500 μg/ml, 1 μM compound, NADPH, relative to 0 min
Experimental: HLM stability determinations shown in Table 3 were obtained as follows. Microsomal incubates contained HLM (500 μg/ml), test compounds (1 μM) and NADPH (1.3 mM) in a 1 ml total volume of microsomal incubation buffer (0.12 M potassium phosphate buffer containing 5 mM magnesium chloride). Reaction was started by adding NADPH to the incubates and was carried out at 37° C. in a shaking water bath for 60 min. At 0, 15, 30, 45, 60 min, a 50 μl aliquot of incubates was taken out and reaction was stopped by adding aliquot into 200 μl ice-cold acetonitrile. After centrifugation at 14000×g for 5 min, 200 μl supernatant was taken out for UPLC-MS/MS analysis as described above. Values at 0 min were used as corresponding control for test compounds. Varapamil, metoprolol, and warfarin, categorized as fast, moderate and slow metabolism, were used as positive control. Incubates without NADPH group served as negative control.

SMILES | Stability HLM % @ 30 min
c1ccc(C2CCN(c3cn[nH]c3)CC2)cc1 [Compound 1, 4-Phenyl-1-(1H-pyrazol-4-yl)piperidine] | 100%
c1ccc(CC2CCN(c3cn[nH]c3)CC2)cc1 [Compound 3, 4-Benzyl-1-(1H-pyrazol-4-yl)piperidine] | 85%
COc1ccc(C2CCN(c3ccn[nH]3)CC2)cc1 [Compound 19, 4-(4-Methoxyphenyl)-1-(1H-pyrazol-5-yl)piperidine] | 89%
COc1ccc(C2CCN(c3cn[nH]c3)CC2)cc1 [Compound 20, 4-(4-Methoxyphenyl)-1-(1H-pyrazol-4-yl)piperidine] | 92%
c1ccc(C2CCN(c3ccn[nH]3)CC2)cc1 [Compound 54, 4-Phenyl-1-(1H-pyrazol-5-yl)piperidine] | 91%
O=C1CCCN1Cc1ccc(C2CCN(c3cn[nH]c3)CC2)cc1 [Compound 83, 1-(4-(1-(1H-Pyrazol-4-yl)piperidin-4-yl)benzyl)pyrrolidin-2-one] | 91%
Clc1ccc(CC2CCN(c3cn[nH]c3)CC2)cc1 [Compound 93, 4-(4-Chlorobenzyl)-1-(1H-pyrazol-4-yl)piperidine] | 85%
O=C1CCCN1c1ccc(C2CCN(c3cn[nH]c3)CC2)cc1 [Compound 100, 1-(4-(1-(1H-Pyrazol-4-yl)piperidin-4-yl)phenyl)pyrrolidin-2-one] | 95%
